Source: patent US20110224231A1, “Novel Lactams as Beta Secretase Inhibitors” (Pfizer Inc., priority 2008, published 2011)
Counter-ions that a name gives are not always drawn.

Biological target: T1, soluble human BACE (Homo sapiens, UniProt P56817)
T1 construct: cells secreting human recombinant soluble BACE; made in house; conditioned medium
Test: BACE activity Cell Free Assay (ELISA of cleaved synthetic APP substrate)
Type: biochemical
Method: A synthetic APP substrate that can be cleaved by beta˜secretase and having N-terminal biotin is used to assay beta-secretase activity in the presence or absence of the inhibitory compounds. […] The substrate and test compounds are added to 384 well polypropylene plates. The reaction is initiated by the addition of soluble BACE enzyme to a final volume of 12.5 μL per well. The final assay conditions are: 0.001˜300 μM compound inhibitor, 0.05M sodium acetate (pH 4.5), 3 μM substrate, soluble human BACE, and 2% DMSO. Concentrated conditioned media from cells secreting human recombinant soluble BACE was titrated to provide a source of BACE enzyme. The cell media can be used as either a crude BACE prep or BACE can be purified using any number of techniques, including immobilized BACE inhibitor purification columns. The assay mixture is incubated for 1 hour at 37° C., and the reaction is quenched by the addition of an equal volume of 0.1M Tris, pH 8. Half of the quenched mix is incubated on clear streptavidin coated 384 well polystyrene plates for 1 hour. An ELISA is then performed using an in˜house antibody that specifically recognizes the new C˜terminus created after cleavage by BACE. […] (These polyclonal antibodies were raised in rabbits by immunizing with antigen comprised of six amino acid residues present at the carboxy terminus of the wild-type soluble APPbeta sequence (NH2-ISEVKM-COOH) or seven amino acid residues present at the carboxy terminus of the Swedish mutation at the beta cleavage site (NH2-EISEVNL˜COOH) conjugated to keyhole limpet hemacyanin by methods known to those skilled in the art.) A secondary anti˜species Horseradish Peroxidase (HRP) conjugated antibody is then utilized. The readout, following assay development with TMB substrate and quenching with 0.09M sulfuric acid, is absorbance at 450 nm.

T1 sequence (P56817 46-457 limits assumed): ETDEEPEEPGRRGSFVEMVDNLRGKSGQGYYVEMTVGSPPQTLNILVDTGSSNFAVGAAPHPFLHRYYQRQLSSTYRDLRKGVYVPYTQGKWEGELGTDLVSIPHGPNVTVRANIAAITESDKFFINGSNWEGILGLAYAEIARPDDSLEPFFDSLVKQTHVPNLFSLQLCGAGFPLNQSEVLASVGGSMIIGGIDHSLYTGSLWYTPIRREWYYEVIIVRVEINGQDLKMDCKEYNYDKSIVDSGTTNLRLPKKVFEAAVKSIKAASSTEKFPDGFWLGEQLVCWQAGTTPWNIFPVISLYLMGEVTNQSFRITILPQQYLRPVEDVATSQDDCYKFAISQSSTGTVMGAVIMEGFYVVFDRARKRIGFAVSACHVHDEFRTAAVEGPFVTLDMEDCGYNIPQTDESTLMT

SMILES | IC50 [µM]
CC1CC2(C=CC(=O)N2c2cccc(F)c2)CCN1Cc1c[nH]c2ccc(OCc3ccccc3)cc12 (racemic) [Example 62, Racemic (5R,7S),(5S,7R)-8-{[5-(benzyloxy)-1H-indol-3-yl]methyl}-1-(3-fluorophenyl)-7-methyl-1,8-diazaspiro[4.5]dec-3-en-2-one] | 10 to 100
CC1CC2(C=CC(=O)N2c2cccc(F)c2)CCN1Cc1c[nH]c2cc(F)ccc12 (racemic) [Example 63, Racemic (5R,7S),(5S,7R)-8-[(6-fluoro-1H-indol-3-yl)methyl]-1-(3-fluorophenyl)-7-methyl-1,8-diazaspiro[4.5]dec-3-en-2-one] | 10 to 100
CC1CC2(C=CC(=O)N2c2cccc(F)c2)CCN1Cc1cccc(-n2cccn2)c1 (racemic) [Example 64, Racemic (5R,7S),(5S,7R)-1-(3-fluorophenyl)-7-methyl-8-[3-(1H-pyrazol-1-yl)benzyl]-1,8-diazaspiro[4.5]dec-3-en-2-one] | 10 to 100
CC1CC2(C=CC(=O)N2c2cccc(F)c2)CCN1Cc1n[nH]c2ccc(Cl)cc12 (racemic) [Example 65, Racemic (5R,7S),(5S,7R)-8-[(5-chloro-1H-indazol-3-yl)methyl]-1-(3-fluorophenyl)-7-methyl-1,8-diazaspiro[4.5]dec-3-en-2-one] | 10 to 100
Cc1ccc2c(CN3CCC4(C=CC(=O)N4c4cccc(F)c4)CC3C)c[nH]c2c1 (racemic) [Example 66, Racemic (5R,7S),(5S,7R)-1-(3-fluorophenyl)-7-methyl-8-[(6-methyl-1H-indol-3-yl)methyl]-1,8-diazaspiro[4.5]dec-3-en-2-one] | 10 to 100
CC1CC2(C=CC(=O)N2c2cccc(F)c2)CCN1Cc1c[nH]c2cc(C(F)(F)F)ccc12 (racemic) [Example 67, Racemic (5R,7S),(5S,7R)-1-(3-fluorophenyl)-7-methyl-8-{[6-(trifluoromethyl)-1H-indol-3-yl]methyl}-1,8-diazaspiro [4.5]dec-3-en-2-one] | 10 to 100
CC1CC2(C=CC(=O)N2c2cccc(F)c2)CCN1Cc1cccc(OCc2nc(C3CC3)no2)c1 (racemic) [Example 68, Racemic (5R,7S),(5S,7R)-8-{3-[(3-cyclopropyl-1,2,4-oxadiazol-5-yl)methoxy]benzyl}-1-(3-fluorophenyl)-7-methyl-1,8-diazaspiro[4.5]dec-3-en-2-one] | 10 to 100
CC(=O)Nc1ccc(CN2CCC3(CCC(=O)N3c3cccc(F)c3)CC2C)cc1 (racemic) [Example 69, Racemic N-(4-{[(5R,7S),(5S,7R)-1-(3-fluorophenyl)-7-methyl-2-oxo-1,8-diazaspiro[4.5]dec-8-yl]methyl}phenyl)acetamide] | 10 to 100
CC1CC2(CCC(=O)N2c2cccc(F)c2)CCN1Cc1c[nH]c2ccc(Cl)cc12 (racemic) [Example 70, Racemic (5R,7S),(5S,7R)-8-[(5-chloro-1H-indol-3-yl)methyl]-1-(3-fluorophenyl)-7-methyl-1,8-diazaspiro[4.5]decan-2-one] | 10 to 100
CC1CC2(C=CC(=O)N2c2cccc(F)c2)CCN1Cc1nc(-c2cccc(Cl)c2)cs1 (racemic) [Example 71, Racemic (5R,7S),(5S,7R)-8-{[4-(3-chlorophenyl)-1,3-thiazol-2-yl]methyl}-1-(3-fluorophenyl)-7-methyl-1,8-diazaspiro[4.5]dec-3-en-2-one] | 10 to 100
COc1cccc(-c2csc(CN3CCC4(C=CC(=O)N4c4cccc(F)c4)CC3C)n2)c1 (racemic) [Example 72, Racemic (5R,7S),(5S,7R)-1-(3-fluorophenyl)-8-{[4-(3-methoxyphenyl)-1,3-thiazol-2-yl]methyl}-7-methyl-1,8-diazaspiro[4.5]dec-3-en-2-one] | 10 to 100
COc1ccc(-c2csc(CN3CCC4(C=CC(=O)N4c4cccc(F)c4)CC3C)n2)cc1 (racemic) [Example 73, Racemic (5R,7S),(5S,7R)-1-(3-fluorophenyl)-8-{[4-(4-methoxyphenyl)-1,3-thiazol-2-yl]methyl}-7-methyl-1,8-diazaspiro[4.5]dec-3-en-2-one] | 10 to 100
CC1CC2(CCC(=O)N2c2cccc(F)c2)CCN1Cc1c[nH]c2cc(F)ccc12 (racemic) [Example 74, Racemic (5R,7S),(5S,7R)-8-[(6-fluoro-1H-indol-3-yl)methyl]-1-(3-fluorophenyl)-7-methyl-1,8-diazaspiro[4.5]decan-2-one] | 100 to 300
COC(=O)Nc1ccc(CN2CCC3(CCC(=O)N3c3cccc(F)c3)CC2C)cc1 (racemic) [Example 75, Racemic methyl (4-{[(5R,7S),(5S,7R)-1-(3-fluorophenyl)-7-methyl-2-oxo-1,8-diazaspiro[4.5]dec-8-yl]methyl}phenyl)carbamate] | 100 to 300
CC1CC2(CCC(=O)N2c2cccc(F)c2)CCN1Cc1c[nH]c2ccc(C#N)cc12 (racemic) [Example 76, Racemic 3-{[(5R,7S),(5S,7R)-1-(3-fluorophenyl)-7-methyl-2-oxo-1,8-diazaspiro[4.5]dec-8-yl]methyl}-1H-indole-5-carbonitrile] | 100 to 300
CC1CC2(CCC(=O)N2c2cccc(F)c2)CCN1Cc1ccnn1CC(F)(F)F (racemic) [Example 77, Racemic (5R,7S),(5S,7R)-1-(3-fluorophenyl)-7-methyl-8-{[1-(2,2,2-trifluoroethyl)-1H-pyrazol-5-yl]methyl}-1,8-diazaspiro[4.5]decan-2-one] | 100 to 300
CC1CC2(CCC(=O)N2c2cccc(F)c2)CCN1Cc1n[nH]c2ccc(Cl)cc12 (racemic) [Example 78, Racemic (5R,7S),(5S,7R)-8-[(5-chloro-1H-indazol-3-yl)methyl]-1-(3-fluorophenyl)-7-methyl-1,8-diazaspiro[4.5]decan-2-one] | 100 to 300
CC1CC2(CCC(=O)N2c2cccc(F)c2)CCN1Cc1cccc(-n2cccn2)c1 (racemic) [Example 79, Racemic (5R,7S),(5S,7R)-1-(3-fluorophenyl)-7-methyl-8-[3-(1H-pyrazol-1-yl)benzyl]-1,8-diazaspiro[4.5]decan-2-one] | 100 to 300
CC1CC2(C=CC(=O)N2c2cccc(F)c2)CCN1Cc1ccc(OC(F)F)c(OC2CC2)c1 (racemic) [Example 80, Racemic (5R,7S),(5S,7R)-8-[3-(cyclopropyloxy)-4-(difluoromethoxy)benzyl]-1-(3-fluorophenyl)-7-methyl-1,8-diazaspiro[4.5]dec-3-en-2-one] | 100 to 300
CC1CC2(CCC(=O)N2c2cccc(F)c2)CCN1Cc1nc(-c2cccc(Cl)c2)cs1 (racemic) [Example 81, Racemic (5R,7S),(5S,7R)-8-{[4-(3-chlorophenyl)-1,3-thiazol-2-yl]methyl}-1-(3-fluorophenyl)-7-methyl-1,8-diazaspiro[4.5]decan-2-one] | 100 to 300
COC1(OC)CC(c2cccc(CN3CCC4(C=CC(=O)N4c4cccc(F)c4)CC3C)c2)C1 (racemic) [Example 82, Racemic (5R,7S),(5S,7R)-8-[3-(3,3-dimethoxycyclobutyl)benzyl]-1-(3-fluorophenyl)-7-methyl-1,8-diazaspiro[4.5]dec-3-en-2-one] | 100 to 300
CC1CC2(C=CC(=O)N2c2cccc(F)c2)CCN1Cc1c[nH]c(-c2ccccc2)n1 (racemic) [Example 83, Racemic (5R,7S),(5S,7R)-1-(3-fluorophenyl)-7-methyl-8-[(2-phenyl-1H-imidazol-4-yl)methyl]-1,8-diazaspiro[4.5]dec-3-en-2-one] | 100 to 300
CC1CC2(CCC(=O)N2c2cccc(F)c2)CCN1Cc1c[nH]c2cc(C(F)(F)F)ccc12 (racemic) [Example 84, Racemic (5R,7S),(5S.7R)-1-(3-fluorophenyl)-7-methyl-8-{[6-(trifluoromethyl)-1H-indol-3-yl]methyl}-1,8-diazaspiro[4.5]decan-2-one] | 100 to 300
CC1CC2(C=CC(=O)N2c2cccc(F)c2)CCN1Cc1nc(-c2ccccc2Cl)cs1 (racemic) [Example 85, Racemic (5R,7S),(5S,7R)-8-{[4-(2-chlorophenyl)-1,3-thiazol-2-yl]methyl}-1-(3-fluorophenyl)-7-methyl-1,8-diazaspiro[4.5]dec-3-en-2-one] | 100 to 300
CC1CC2(CCC(=O)N2c2cccc(F)c2)CCN1Cc1cccc(OCc2nc(C3CC3)no2)c1 (racemic) [Example 86, Racemic (5R,7S),(5S,7R)-8-{3-[(3-cyclopropyl-1,2,4-oxadiazol-5-yl)methoxy]benzyl}-1-(3-fluorophenyl)-7-methyl-1,8-diazaspiro[4.5]decan-2-one] | 100 to 300
CC(C)Oc1cccc(CN2CC[C@]3(CC(F)C(=O)N3c3cccc(F)c3)C[C@@H]2C)c1 (mixture of isomers) [Example 90, Racemic (5R,7S)(5S,7R)-3-fluoro-1-(3-fluorophenyl)-8-(3-isopropoxybenzyl)-7˜methyl˜1,8˜diazaspiro[4.5]decan˜2˜one, formate salt] | 10 to 100
CC(C)Oc1cccc(CN2CC[C@@]3(C[C@@H]2C)CC(F)(F)C(=O)N3c2cccc(F)c2)c1 (racemic) [Example 91, Racemic (5R,7S)(5S,7R)˜3,3˜difluoro˜1˜(3˜fluorophenyl)˜8˜(3˜isopropoxybenzyl)˜7˜methyl˜1,8˜diazaspiro[4.5]decan˜2˜one, formate salt] | 10 to 100
